Test results taken from PubChem BioAssay AID2060892 (Molecular Pharmacology Branch, DTP, NCI, 2025).

System: HOP-62 complex spheroids with HUVEC/MSC, viability
Assay: Anticancer human tumor HOP-62 cell line growth inhibition [RAS];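 also: spheroids exposed to agents for seven days before readout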;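 as to viability, T/C: 100% = DMSO vehicle control viability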
Settings: for IC50: curve of first compound; for viability, T/C: stronger effect = lower value
Summary of the method: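 Agents were tested in combination matrices in half-log decrements from a top concentration at or near clinical Cmax (10 microM if undetermined). Targets were multi-cell spheroids of tumour lines plus HUVEC and MSC stromal cells.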

**Q.** How did the IC50 (second compound 0.000949 µM) turn out when `CC(C)NCC(C(=O)N1CCN(c2ncnc3c2C(C)CC3O)CC1)c1ccc(Cl)cc1` (configuration not stated) + CCn1c(-c2cc(N3CCN(C)CC3)cnc2C(C)OC)c2c3cc(ccc31)-c1csc(n1)CC(NC(=O)C1CC1C)C(=O)N1CCCC(N1)C(=O)OCC(C)(C)C2 was run?
**A.** 3880 nM

**Q.** And the IC50 (second compound 0.003 µM)?
**A.** 2300 nM

**Q.** And the IC50 (second compound 0.00949 µM)?
**A.** 587 nM

**Q.** And the IC50 (second compound 0.03 µM)?
**A.** < 31.6 nM

**Q.** What about the IC50 (second compound 0.0949 µM) of the same molecule?
**A.** < 31.6 nM

**Q.** What about the IC50 (second compound 0.3 µM) of the same molecule?
**A.** < 31.6 nM

**Q.** What about the viability, T/C (second compound 0.000949 µM, first compound 0.0316 µM) of the same molecule?
**A.** 121%

**Q.** What about the viability, T/C (second compound 0.000949 µM, first compound 0.1 µM) of the same molecule?
**A.** 119%

**Q.** What about the viability, T/C (second compound 0.000949 µM, first compound 0.316 µM) of the same molecule?
**A.** 80.8%

**Q.** What about the viability, T/C (second compound 0.000949 µM, first compound 1 µM) of the same molecule?
**A.** 88.9%

**Q.** And the viability, T/C (second compound 0.000949 µM, first compound 3.16 µM)?
**A.** 60%

**Q.** What about the viability, T/C (second compound 0.000949 µM, first compound 10 µM) of the same molecule?
**A.** 19.1%

**Q.** And the viability, T/C (second compound 0.003 µM, first compound 0.0316 µM)?
**A.** 100%

**Q.** And the viability, T/C (second compound 0.003 µM, first compound 0.1 µM)?
**A.** 95%

**Q.** What about the viability, T/C (second compound 0.003 µM, first compound 0.316 µM) of the same molecule?
**A.** 71.2%

**Q.** What about the viability, T/C (second compound 0.003 µM, first compound 1 µM) of the same molecule?
**A.** 71.3%

**Q.** And the viability, T/C (second compound 0.003 µM, first compound 3.16 µM)?
**A.** 44.1%

**Q.** And the viability, T/C (second compound 0.003 µM, first compound 10 µM)?
**A.** 17%

**Q.** What about the viability, T/C (second compound 0.00949 µM, first compound 0.0316 µM) of the same molecule?
**A.** 74.7%

**Q.** What about the viability, T/C (second compound 0.00949 µM, first compound 0.1 µM) of the same molecule?
**A.** 56.9%

**Q.** And the viability, T/C (second compound 0.00949 µM, first compound 0.316 µM)?
**A.** 58.5%

**Q.** What about the viability, T/C (second compound 0.00949 µM, first compound 1 µM) of the same molecule?
**A.** 48.6%

**Q.** What about the viability, T/C (second compound 0.00949 µM, first compound 3.16 µM) of the same molecule?
**A.** 21.5%

**Q.** What about the viability, T/C (second compound 0.00949 µM, first compound 10 µM) of the same molecule?
**A.** 12.3%

**Q.** What about the viability, T/C (second compound 0.03 µM, first compound 0.0316 µM) of the same molecule?
**A.** 46.9%

**Q.** And the viability, T/C (second compound 0.03 µM, first compound 0.1 µM)?
**A.** 46.3%

**Q.** And the viability, T/C (second compound 0.03 µM, first compound 0.316 µM)?
**A.** 38.3%

**Q.** What about the viability, T/C (second compound 0.03 µM, first compound 1 µM) of the same molecule?
**A.** 31.7%

**Q.** What about the viability, T/C (second compound 0.03 µM, first compound 3.16 µM) of the same molecule?
**A.** 14.8%

**Q.** What about the viability, T/C (second compound 0.03 µM, first compound 10 µM) of the same molecule?
**A.** 15.3%

**Q.** And the viability, T/C (second compound 0.0949 µM, first compound 0.0316 µM)?
**A.** 34.7%

**Q.** And the viability, T/C (second compound 0.0949 µM, first compound 0.1 µM)?
**A.** 40.6%

**Q.** What about the viability, T/C (second compound 0.0949 µM, first compound 0.316 µM) of the same molecule?
**A.** 30.4%

**Q.** What about the viability, T/C (second compound 0.0949 µM, first compound 1 µM) of the same molecule?
**A.** 30.9%

**Q.** What about the viability, T/C (second compound 0.0949 µM, first compound 3.16 µM) of the same molecule?
**A.** 15%

**Q.** And the viability, T/C (second compound 0.0949 µM, first compound 10 µM)?
**A.** 13.9%

**Q.** And the viability, T/C (second compound 0.3 µM, first compound 0.0316 µM)?
**A.** 34.2%

**Q.** What about the viability, T/C (second compound 0.3 µM, first compound 0.1 µM) of the same molecule?
**A.** 38.6%

**Q.** What about the viability, T/C (second compound 0.3 µM, first compound 0.316 µM) of the same molecule?
**A.** 29.6%

**Q.** And the viability, T/C (second compound 0.3 µM, first compound 1 µM)?
**A.** 22.4%

**Q.** What about the viability, T/C (second compound 0.3 µM, first compound 3.16 µM) of the same molecule?
**A.** 19.2%

**Q.** What about the viability, T/C (second compound 0.3 µM, first compound 10 µM) of the same molecule?
**A.** 14.5%
